# Reference: patent publication US20250032525A1 (priority 2021, published 2025)
# Where two headings read alike, the source gives them in different places.
# Key:
# [1] = test system: patient-derived lung adenocarcinoma xenografts; test: Patient-derived xenograft (PDX) model; format: in vivo, NSG mice; conditions: single treatment; LiPyDau 0.5 mg/kg, DOX 2 mg/kg, paclitaxel 12 mg/kg; 7 days
# From the text: A piece from the tumor tissue was transplanted subcutaneously into the right flank and propagated in NOD.Cg-Prkdc^scid Il2rg^tm1Wjl/SzJ (NSG) mice for 7 months. After the xenografted tumor reached 1000 mm^3, tumor pieces were retransplanted subcutaneously into the right flank of 20 additional NSG mice, which were given a single treatment with various chemotherapeutics or LiPyDau. Every treatment group consists of 5 animals. After daily monitoring of the tumor volume for one week, the mice were sacrificed and the cytotoxicity of the treatments was investigated on tissue slices by image analysis.
# For treatment, tumor pieces were engrafted subcutaneously.
# [2] = test system: nitrosamine-induced pancreatic cancers; conditions: intraperitoneal, total dose of 100 nmol/kg; cited from earlier work
# [3] = Nagy et al.; cited from earlier work
# [4] = test system: Dunning R-3327-H prostate carcinoma; conditions: cited from earlier work
# [5] = test system: Lewis Lung Carcinoma (LLC) tumor; test: Mouse Lewis lung carcinoma (LLC) model; format: in vivo, C57BL/6 mice; conditions: single intravenous dose; cisplatin 5 mg/kg, LiPyDau 1 mg/kg
# Experimental: FIG. 6. Anti-tumor effect of LiPyDau and cisplatin in the mouse Lewis lung cancer (LLC) lung carcinoma model. C57BL/6 mice received sc. injection of 2×10^5 LLC cells in 100 μl PBS. When the tumors were palpable, mice were randomized to receive a single intravenous dose of cisplatin (5 mg/kg) or LiPyDau (1 mg/kg) as indicated by the arrow. Control mice were treated with saline.
# Mouse melanoma (B16), lung (Lewis lung carcinoma, LLC) and breast (4T1-LUC) cancer cell lines were used to establish allograft tumors for drug testing. 5×10^5 B16 or 2×10^5 LLC cells were inoculated subcutaneously in 200 μl serum-free culture media. 4T1-LUC tumors were established by injecting 1×10^6 cells in 20 μl serum-free culture media through the nipple directly to the breast tissue of 8 weeks old BALB/c mice on day 0). […] For the B16, LLC and 4T1-LUC tumor models 4, 6 and 6 mice were treated with LiPyDau while 4, 3 and 6 animals were in the saline treated groups, respectively.
# A431-G2 = test: In vitro cytotoxicity; format: cell-based
# From the text: (§1) Experiments were repeated at least 3 times.
# A431-B1 = test: In vitro cytotoxicity; format: cell-based
# From the text: as §1
# A431 = test: In vitro cytotoxicity; format: cell-based
# From the text: as §1
# MES-SA/Dx5 = test: In vitro cytotoxicity; format: cell-based; conditions: MES-SA/Dx5; read-out: IC50
# From the text: as §1
# P388/ADR = test: In vitro cytotoxicity; format: cell-based; conditions: read-out: IC50
# From the text: as §1
# MES-SA = test: In vitro cytotoxicity; format: cell-based; conditions: read-out: IC50
# From the text: as §1
# P388 = test: In vitro cytotoxicity; format: cell-based
# From the text: as §1
# NCI-H226 = conditions: NCI-H226, NCI-60 database, sulforhodamine B; read-out: Cytotoxic IC50; cited from earlier work
# CCRF-CEM = conditions: NCI-60 database, sulforhodamine B, read-out: Cytotoxic IC50; cited from earlier work
# HCT-116 = conditions: HCT-116, NCI-60 database, sulforhodamine B; read-out: Cytotoxic IC50; cited from earlier work
# SW-620 = conditions: SW-620, NCI-60 database, sulforhodamine B; read-out: Cytotoxic IC50; cited from earlier work
# MCF7 = conditions: MCF7, NCI-60 database, sulforhodamine B; read-out: Cytotoxic IC50; cited from earlier work
# COLO 205 = conditions: COLO 205, NCI-60 database, sulforhodamine B; read-out: Cytotoxic IC50; cited from earlier work
# UO-31 = conditions: UO-31, NCI-60 database, sulforhodamine B; read-out: Cytotoxic IC50; cited from earlier work
# PC-3 = conditions: PC-3, NCI-60 database, sulforhodamine B; read-out: Cytotoxic IC50; cited from earlier work
# HS 578T = conditions: NCI-60 database, sulforhodamine B, read-out: Cytotoxic IC50; cited from earlier work
# HCC-2998 = conditions: HCC-2998, NCI-60 database, sulforhodamine B; read-out: Cytotoxic IC50; cited from earlier work
# CAKI-1 = conditions: CAKI-1, NCI-60 database, sulforhodamine B; read-out: Cytotoxic IC50; cited from earlier work
# SK-MEL-28 = conditions: SK-MEL-28, NCI-60 database, sulforhodamine B; read-out: Cytotoxic IC50; cited from earlier work
# DU-145 = conditions: DU-145, NCI-60 database, sulforhodamine B; read-out: Cytotoxic IC50; cited from earlier work
# HOP-62 = conditions: HOP-62, NCI-60 database, sulforhodamine B; read-out: Cytotoxic IC50; cited from earlier work
# MDA-MB-435 = conditions: MDA-MB-435, NCI-60 database, sulforhodamine B; read-out: Cytotoxic IC50; cited from earlier work
# SK-MEL-2 = conditions: SK-MEL-2, NCI-60 database, sulforhodamine B; read-out: Cytotoxic IC50; cited from earlier work
# PANC-1 = conditions: PANC-1, from Varbanov et al. (2017), PrestoBlue; read-out: Cytotoxic IC50; cited from earlier work
# MALME-3M = conditions: NCI-60 database, sulforhodamine B, read-out: Cytotoxic IC50; cited from earlier work
# KM12 = conditions: KM12, NCI-60 database, sulforhodamine B; read-out: Cytotoxic IC50; cited from earlier work
# MDA-MB-231 = conditions: MDA-MB-231, NCI-60 database, sulforhodamine B; read-out: Cytotoxic IC50; cited from earlier work
# OVCAR-3 = conditions: OVCAR-3, NCI-60 database, sulforhodamine B; read-out: Cytotoxic IC50; cited from earlier work
# OVCAR-8 = conditions: OVCAR-8, NCI-60 database, sulforhodamine B; read-out: Cytotoxic IC50; cited from earlier work
# RXF 393 = conditions: RXF 393, NCI-60 database, sulforhodamine B; read-out: Cytotoxic IC50; cited from earlier work
# HT29 = conditions: HT29, NCI-60 database, sulforhodamine B; read-out: Cytotoxic IC50; cited from earlier work
# HL-60(TB) = conditions: NCI-60 database, sulforhodamine B, read-out: Cytotoxic IC50; cited from earlier work
# EKVX = conditions: NCI-60 database, sulforhodamine B, read-out: Cytotoxic IC50; cited from earlier work
# NCI-60 cell lines = test: NCI DTP NCI-60 cell line screen database (sulforhodamine B), panel; format: cell-based; conditions: Homo sapiens
# HCT-15 = conditions: HCT-15, NCI-60 database, sulforhodamine B; read-out: Cytotoxic IC50; cited from earlier work
# OVCAR-5 = conditions: OVCAR-5, NCI-60 database, sulforhodamine B; read-out: Cytotoxic IC50; cited from earlier work
# A498 = conditions: A498, NCI-60 database, sulforhodamine B; read-out: Cytotoxic IC50; cited from earlier work
# BT-549 = conditions: BT-549, NCI-60 database, sulforhodamine B; read-out: Cytotoxic IC50; cited from earlier work
# T-47D = conditions: NCI-60 database, sulforhodamine B, read-out: Cytotoxic IC50; cited from earlier work
# NCI/ADR-RES = conditions: NCI-60 database, sulforhodamine B, read-out: Cytotoxic IC50; cited from earlier work
structure (smiles),measurement,setting,value
CC(=O)O[C@H]1C(=O)[C@@]2(C)[C@H]([C@H](OC(=O)c3ccccc3)[C@]3(O)C[C@H](OC(=O)[C@H](O)[C@@H](NC(=O)c4ccccc4)c4ccccc4)C(C)=C1C3(C)C)[C@]1(OC(C)=O)CO[C@@H]1C[C@@H]2O [paclitaxel],Tumor growth,[1],failed to exert any effect on tumor growth
"COc1cccc2c1C(=O)c1c(O)c3c(c(O)c1C2=O)C[C@@](O)(C(=O)CO)C[C@@H]3O[C@H]1C[C@H](N2C=CCC2)[C@H](O)[C@H](C)O1 [PyDox, 2-pyrrolino-doxorubicin]",Hamsters that died,[2],16 of 18
same,Potency in vitro relative to Dox,[3],500-1000 times
same,Animals that died,"[4]; 3×25 nmol/kg, rats",6 of 10
same,Change in the number of mitotic or apoptotic cells,[4]; after treatment in rats,no significant change in the number of mitotic or apoptotic cells
same,Mortality,"[4]; dose of 50 nmol/kg, rats",death of all rats
"N.N.[Cl][Pt][Cl] [Cisplatin, cisplatin]",Tumor growth,[5],did not have any measurable effect on tumor growth
same,IC50,A431-G2,1950 nM
same,IC50,A431-B1,3950 nM
same,IC50,A431,3860 nM
same,IC50,MES-SA/Dx5,12500 nM
same,IC50,P388/ADR,1180 nM
same,IC50,MES-SA,7580 nM
same,IC50,P388,610 nM
"COc1cccc2c1C(=O)c1c(O)c3c(c(O)c1C2=O)C[C@@](O)(C(C)=O)C[C@@H]3O[C@H]1C[C@H](N)[C@H](O)[C@H](C)O1 [Dau, daunorubicin]",IC50,NCI-H226,46.5 nM
same,IC50,CCRF-CEM,22.8 nM
same,IC50,HCT-116,28.6 nM
same,IC50,SW-620,35.5 nM
same,IC50,MCF7,19.5 nM
same,IC50,COLO 205,52.5 nM
same,IC50,UO-31,175 nM
same,IC50,PC-3,108 nM
same,IC50,HS 578T,120 nM
same,IC50,HCC-2998,99.3 nM
same,IC50,CAKI-1,229 nM
same,IC50,SK-MEL-28,132 nM
same,IC50,DU-145,76.7 nM
same,IC50,HOP-62,53 nM
same,IC50,MDA-MB-435,137 nM
same,IC50,SK-MEL-2,158 nM
same,IC50,PANC-1,260 nM
same,IC50,MALME-3M,49.7 nM
same,IC50,KM12,95.9 nM
same,IC50,MDA-MB-231,201 nM
same,IC50,OVCAR-3,124 nM
same,IC50,OVCAR-8,41.6 nM
same,IC50,RXF 393,92.5 nM
same,IC50,HT29,50.7 nM
same,IC50,HL-60(TB),31.2 nM
same,IC50,EKVX,360 nM
same,IC50,"NCI-60 cell lines; read-out: Cytotoxic IC50, av. breast",112 nM
same,IC50,"NCI-60 cell lines; read-out: Cytotoxic IC50, av. colorectal",145 nM
same,IC50,"NCI-60 cell lines; read-out: Cytotoxic IC50, av. leukaemia",27 nM
same,IC50,"NCI-60 cell lines; read-out: Cytotoxic IC50, av. lung",157 nM
same,IC50,"NCI-60 cell lines; read-out: Cytotoxic IC50, av. melanoma",113 nM
same,IC50,"NCI-60 cell lines; read-out: Cytotoxic IC50, av. ovarian",388 nM
same,IC50,"NCI-60 cell lines; read-out: Cytotoxic IC50, av. prostatic",92.2 nM
same,IC50,"NCI-60 cell lines; read-out: Cytotoxic IC50, av. renal",158 nM
same,IC50,HCT-15,650 nM
same,IC50,OVCAR-5,155 nM
same,IC50,A498,137 nM
same,IC50,BT-549,153 nM
same,IC50,T-47D,40.8 nM
same,IC50,NCI/ADR-RES,1230 nM
